For one assay, the system named is NFAT. The assay is described as follows: Cellular NFAT-reporter-gene assay (GloResponse NFAT-RE-luc2P HEK293). The class given is cell-based. Particulars: Homo sapiens, read-out: NFAT-reporter-gene assay IC50. From the text:
An antigen specific stimulation of the T-cell receptor causes the activation of transcription factors such as e.g. NFAT (nuclear factor of activated T cells). NFAT-activation is essential for the expression of interleukine-2 and therefore, for the proliferation of T-cells as part of the immune response. A stable NFAT-reporter-gene cell line enables the analysis of modulators of the NFAT-pathways and thus, the evaluation of the immunosuppressive effects of compounds.
The stably transfected reporter-gene cell line GloResponse NFAT-RE-luc2P HEK293 (promega Corp. USA) was cultivated in DMEM (10% FCS; 2 mM Glutamin; 200 μg/ml Hygromycin) and seeded on 96-well plates (200.000 cells/well). The compounds to be tested were either added to the cells in a 2-point-determination (5 μM and 10 μM) or an ICH-determination (concentration series 4.1 nM-1 μM). […] Immediately thereafter the cells were stimulated with 5 nM PMA and 2 μM ionomycin and incubated over 16 h (37° C.; cell incubator). This double stimulation simulates a T-cell receptor stimulation and causes a NFAT activation with subsequently expression of the luciferase-reporter-gene. The amount of luciferase was quantitatively determined after 16 h by measurement of the bioluminescence by Bright-Glo Luciferase-Assay-System (Promega Corp., USA). The averaged luciferase values of the vehicle treated (1% DMSO) and with PMA/ionomycin stimulated cells were used as positive control and reference value.

For the next assay, the target named is calcineurin (Homo sapiens, UniProt P62937+P63098+Q08209). The assay is described as follows: Inhibition of the phosphatase activity of calcineurin (scintillation-proximity-assay, in presence of Cyp18).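 Further: calcineurin dephosphorylation of a ³³P-labelled RII phosphopeptide, captured on streptavidin-coated wells and read by scintillation counting, with uninhibited enzyme activity taken as 100%.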
Assay [1] concerns the target recombinant human wild type Cyp18 (Cyp18 wt) (Homo sapiens, UniProt P62937). The assay can be described thus: biochemical.
Procedure: The determination was performed on a UV/Vis spectrometer at 10° C. cuvette temperature, whereby the device is operated at 390 nm in kinetic-mode (measurement buffer: 35 mM HEPES/NaOH pH 7.8 (AppliChem A1069)). 0.58 nM recombinant human wild type Cyp18 (Cyp18 wt), 2.33 nM bovine serum albumin (BSA) and 1 mg/ml chymotrypsin (Merck) solved in 35 mM HEPES/NaOH pH 7.8 as well as different concentration of each test substance, where appropriate, were in the cuvette. The reaction was started with a stock solution of Suc-Ala-Ala-Pro-Phe-4-nitroanilide (Bachem, 10 mg/ml DMSO) as substrate so that a final substrate concentration of 32 μM resulted. The extinction-time-curves were evaluated after expiry of the fast phase of the reaction i.e. after approximately 60 seconds according to a rate equation of a first-order reaction.

Each structure is given as a SMILES string. Where two headings read alike, the source gives them in different places. Bounds are passed on as bounds.

The record followed here is US9453051B2, “Cyclosporin derivatives” (priority 2011, dated 2016).

Sequence of recombinant human wild type Cyp18 (Cyp18 wt) (P62937 whole entry): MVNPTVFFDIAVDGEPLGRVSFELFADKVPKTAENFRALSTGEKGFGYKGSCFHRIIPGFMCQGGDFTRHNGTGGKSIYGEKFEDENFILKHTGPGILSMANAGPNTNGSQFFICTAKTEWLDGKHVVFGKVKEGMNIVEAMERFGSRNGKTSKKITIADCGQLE
Procedure for calcineurin: The measurement was carried out by incubation of 10 μMol of the biotinylated phosphopeptide [sequence]pSer-Val-Ala-Ala-Glu (MW=2192.0) (RH-peptide) marked with ^33P in a sample buffer (40 mM Tris-HCl, pH 7.5, 100 mM NaCl, 6 mM MgCl2, 0.5 mM dithiothreitol, 1 mM. CaCl2, 0.1 mg/ml bovine serum albumin) in presence of 50 nM calmodulin and 1.32 nM calcineurin at 30° C. for 20 min in a 96 well micro titer plate (Costar, Bodenheim, Germany). The total volume of the assay/well was 100 μl. After this reaction time a 90 μl aliquot of the reaction mixture was transferred into a scintillation cavity coated with streptavidin and incubated for 20 min at 22° C. After a washing step the RII phosphopeptide-associated ^33P radioactivity was measured in a MicroBeta Top Counter (Wallac) and the enzyme activity was indicated as average value of three measurements±S.D. The uninhibited dephosphorylation activity has been set on 100%.

On to `CC[C@@H]1NC(=O)[C@H]([C@H](O)[C@H](C)CC2=NCCN2)N(C)C(=O)[C@H](C(C)C)N(C)C(=O)[C@H](CC(C)C)N(C)C(=O)[C@H](CC(C)C)N(C)C(=O)[C@@H](C)NC(=O)[C@H](C)NC(=O)[C@H](CC(C)C)N(C)C(=O)[C@H](C(C)C)NC(=O)[C@H](CC(C)C)N(C)C(=O)CN(C)C1=O` [Compound 42], for which the 50% inhibitory concentration (IC50) (in general, the concentration at which inhibition is half-maximal) with NFAT (HEK293 reporter cells stimulated with 5 nM PMA and 2 μM ionomycin, 16 h) was found to be 10 µM.
Consider `CC[C@@H]1NC(=O)[C@H]([C@H](O)[C@H](C)Cc2nc3nc(O)nc(O)c3[nH]2)N(C)C(=O)[C@H](C(C)C)N(C)C(=O)[C@H](CC(C)C)N(C)C(=O)[C@H](CC(C)C)N(C)C(=O)[C@@H](C)NC(=O)[C@H](C)NC(=O)[C@H](CC(C)C)N(C)C(=O)[C@H](C(C)C)NC(=O)[C@H](CC(C)C)N(C)C(=O)CN(C)C1=O` [Compound 24], for which the 50% inhibitory concentration (IC50) was above 10 µM at calcineurin; above 10 µM with NFAT (HEK293, 16 h); 6.2 nM in assay [1].
`CCC(CC)COC(=O)c1ccc2[nH]c(C[C@@H](C)[C@@H](O)[C@H]3C(=O)N[C@@H](CC)C(=O)N(C)CC(=O)N(C)[C@@H](CC(C)C)C(=O)N[C@@H](C(C)C)C(=O)N(C)[C@@H](CC(C)C)C(=O)N[C@@H](C)C(=O)N[C@H](C)C(=O)N(C)[C@@H](CC(C)C)C(=O)N(C)[C@@H](CC(C)C)C(=O)N(C)[C@@H](C(C)C)C(=O)N3C)nc2c1` [Compound 10]: the half-maximal inhibitory concentration (IC50) at calcineurin is 6.9 µM; in the assay on NFAT (HEK293, 16 h), above 10 µM; in assay [1], 11.5 nM.
Regarding `CC[C@@H]1NC(=O)[C@H]([C@H](O)[C@H](C)Cc2nc3cc(C(=O)OCCN(C)C)ccc3[nH]2)N(C)C(=O)[C@H](C(C)C)N(C)C(=O)[C@H](CC(C)C)N(C)C(=O)[C@H](CC(C)C)N(C)C(=O)[C@@H](C)NC(=O)[C@H](C)NC(=O)[C@H](CC(C)C)N(C)C(=O)[C@H](C(C)C)NC(=O)[C@H](CC(C)C)N(C)C(=O)CN(C)C1=O` [Compound 26], the IC50 was 6.2 µM at calcineurin; above 10 µM in the assay with NFAT (HEK293, 16 h); 10.8 nM in assay [1].
Consider `CC[C@@H]1NC(=O)[C@H]([C@H](O)[C@H](C)Cc2nc3cccc(C(=O)OC)c3[nH]2)N(C)C(=O)[C@H](C(C)C)N(C)C(=O)[C@H](CC(C)C)N(C)C(=O)[C@H](CC(C)C)N(C)C(=O)[C@@H](C)NC(=O)[C@H](C)NC(=O)[C@H](CC(C)C)N(C)C(=O)[C@H](C(C)C)NC(=O)[C@H](CC(C)C)N(C)C(=O)CN(C)C1=O` [Compound 29], for which the IC50 at calcineurin was above 10 µM; with NFAT (HEK293, 16 h) it was 10 µM; in assay [1] it was 29.5 nM.
Turning to `CCCCOC(=O)c1ccc2[nH]c(C[C@@H](C)[C@@H](O)[C@H]3C(=O)N[C@@H](CC)C(=O)N(C)CC(=O)N(C)[C@@H](CC(C)C)C(=O)N[C@@H](C(C)C)C(=O)N(C)[C@@H](CC(C)C)C(=O)N[C@@H](C)C(=O)N[C@H](C)C(=O)N(C)[C@@H](CC(C)C)C(=O)N(C)[C@@H](CC(C)C)C(=O)N(C)[C@@H](C(C)C)C(=O)N3C)nc2c1` [Compound 11], the IC50 in the assay on NFAT (HEK293, 16 h) was found to be 10 µM.
As for `CC[C@@H]1NC(=O)[C@H]([C@H](O)[C@H](C)Cc2nc3cc(/C=C/C(=O)O)ccc3[nH]2)N(C)C(=O)[C@H](C(C)C)N(C)C(=O)[C@H](CC(C)C)N(C)C(=O)[C@H](CC(C)C)N(C)C(=O)[C@@H](C)NC(=O)[C@H](C)NC(=O)[C@H](CC(C)C)N(C)C(=O)[C@H](C(C)C)NC(=O)[C@H](CC(C)C)N(C)C(=O)CN(C)C1=O` [Compound 15], the 50% inhibitory concentration (IC50) at calcineurin was above 10 µM; in the assay on NFAT (HEK293, 16 h), above 10 µM; in assay [1], 4.8 nM.
Consider `CCOC(=O)c1ccc2[nH]c(C[C@@H](C)[C@@H](O)[C@H]3C(=O)N[C@@H](CC)C(=O)N(C)CC(=O)N(C)[C@@H](CC(C)C)C(=O)N[C@@H](C(C)C)C(=O)N(C)[C@@H](CC(C)C)C(=O)N[C@@H](C)C(=O)N[C@H](C)C(=O)N(C)[C@@H](CC(C)C)C(=O)N(C)[C@@H](CC(C)C)C(=O)N(C)[C@@H](C(C)C)C(=O)N3C)nc2c1` [Compound 9], for which the 50% inhibitory concentration (IC50) was 7 µM at calcineurin; above 10 µM with NFAT (HEK293, 16 h); 13.9 nM in assay [1].
As for `CC[C@@H]1NC(=O)[C@H]([C@H](O)[C@H](C)Cc2nc3cc(C(=O)NN)ccc3[nH]2)N(C)C(=O)[C@H](C(C)C)N(C)C(=O)[C@H](CC(C)C)N(C)C(=O)[C@H](CC(C)C)N(C)C(=O)[C@@H](C)NC(=O)[C@H](C)NC(=O)[C@H](CC(C)C)N(C)C(=O)[C@H](C(C)C)NC(=O)[C@H](CC(C)C)N(C)C(=O)CN(C)C1=O` [Compound 19], the IC50 on calcineurin was 7 µM; with NFAT (HEK293, 16 h) it was above 10 µM; in assay [1], 5.4 nM.
`CC[C@@H]1NC(=O)[C@H]([C@H](O)[C@H](C)CC2=NC(C(=O)O)CO2)N(C)C(=O)[C@H](C(C)C)N(C)C(=O)[C@H](CC(C)C)N(C)C(=O)[C@H](CC(C)C)N(C)C(=O)[C@@H](C)NC(=O)[C@H](C)NC(=O)[C@H](CC(C)C)N(C)C(=O)[C@H](C(C)C)NC(=O)[C@H](CC(C)C)N(C)C(=O)CN(C)C1=O` (stereo partly shown) [Compound 43]: the half-inhibitory concentration (IC50) with NFAT (HEK293, 16 h) is 5.3 µM; in assay [1], 45.3 nM.
With `CC[C@@H]1NC(=O)[C@H]([C@H](O)[C@H](C)Cc2nc3cc(C(=O)NC(CCC(=O)O)C(=O)NC(CCC(=O)O)C(=O)O)ccc3[nH]2)N(C)C(=O)[C@H](C(C)C)N(C)C(=O)[C@H](CC(C)C)N(C)C(=O)[C@H](CC(C)C)N(C)C(=O)[C@@H](C)NC(=O)[C@H](C)NC(=O)[C@H](CC(C)C)N(C)C(=O)[C@H](C(C)C)NC(=O)[C@H](CC(C)C)N(C)C(=O)CN(C)C1=O` (stereo partly shown) [Compound 13], the concentration for half-maximal inhibition (IC50) was above 10 µM at calcineurin; above 10 µM in the assay with NFAT (HEK293, 16 h); 11.1 nM in assay [1].
In the case of `CC[C@@H]1NC(=O)[C@H]([C@H](O)[C@H](C)Cc2nc3cc(C(=O)OC(C)C)ccc3[nH]2)N(C)C(=O)[C@H](C(C)C)N(C)C(=O)[C@H](CC(C)C)N(C)C(=O)[C@H](CC(C)C)N(C)C(=O)[C@@H](C)NC(=O)[C@H](C)NC(=O)[C@H](CC(C)C)N(C)C(=O)[C@H](C(C)C)NC(=O)[C@H](CC(C)C)N(C)C(=O)CN(C)C1=O` [Compound 25], the half-inhibitory concentration (IC50) in the assay on NFAT (HEK293, 16 h) came to 10 µM.
Take `CC[C@@H]1NC(=O)[C@H]([C@H](O)[C@H](C)Cc2nc3c(F)c(F)cc(S(=O)(=O)O)c3[nH]2)N(C)C(=O)[C@H](C(C)C)N(C)C(=O)[C@H](CC(C)C)N(C)C(=O)[C@H](CC(C)C)N(C)C(=O)[C@@H](C)NC(=O)[C@H](C)NC(=O)[C@H](CC(C)C)N(C)C(=O)[C@H](C(C)C)NC(=O)[C@H](CC(C)C)N(C)C(=O)CN(C)C1=O` [Compound 20]: the concentration for half-maximal inhibition (IC50) on calcineurin is above 10 µM; with NFAT (HEK293, 16 h) it was above 10 µM; in assay [1], 6.7 nM.
As for `CC[C@@H]1NC(=O)[C@H]([C@H](O)[C@H](C)Cc2nc3cc(N4CCN(C)CC4)ccc3[nH]2)N(C)C(=O)[C@H](C(C)C)N(C)C(=O)[C@H](CC(C)C)N(C)C(=O)[C@H](CC(C)C)N(C)C(=O)[C@@H](C)NC(=O)[C@H](C)NC(=O)[C@H](CC(C)C)N(C)C(=O)[C@H](C(C)C)NC(=O)[C@H](CC(C)C)N(C)C(=O)CN(C)C1=O` [Compound 41], the IC50 was above 10 µM at calcineurin; above 10 µM with NFAT (HEK293, 16 h); 3 nM in assay [1].
`CC[C@@H]1NC(=O)[C@H]([C@H](O)[C@H](C)Cc2nc3cc(NC(=O)C(F)(F)F)ccc3[nH]2)N(C)C(=O)[C@H](C(C)C)N(C)C(=O)[C@H](CC(C)C)N(C)C(=O)[C@H](CC(C)C)N(C)C(=O)[C@@H](C)NC(=O)[C@H](C)NC(=O)[C@H](CC(C)C)N(C)C(=O)[C@H](C(C)C)NC(=O)[C@H](CC(C)C)N(C)C(=O)CN(C)C1=O` [Compound 38]: the 50% inhibitory concentration (IC50) at calcineurin worked out at 3.34 µM; in the assay on NFAT (HEK293, 16 h), 3.8 µM; in assay [1], 14.3 nM.
On to `CC[C@@H]1NC(=O)[C@H]([C@H](O)[C@H](C)Cc2nc3ccc4c(S(=O)(=O)O)cccc4c3[nH]2)N(C)C(=O)[C@H](C(C)C)N(C)C(=O)[C@H](CC(C)C)N(C)C(=O)[C@H](CC(C)C)N(C)C(=O)[C@@H](C)NC(=O)[C@H](C)NC(=O)[C@H](CC(C)C)N(C)C(=O)[C@H](C(C)C)NC(=O)[C@H](CC(C)C)N(C)C(=O)CN(C)C1=O` [Compound 45], for which the IC50 with NFAT (HEK293, 16 h) is above 10 µM.
Turning to `CC[C@@H]1NC(=O)[C@H]([C@H](O)[C@H](C)Cc2nc3ccc(C(=O)OC)c(C(=O)OC)c3[nH]2)N(C)C(=O)[C@H](C(C)C)N(C)C(=O)[C@H](CC(C)C)N(C)C(=O)[C@H](CC(C)C)N(C)C(=O)[C@@H](C)NC(=O)[C@H](C)NC(=O)[C@H](CC(C)C)N(C)C(=O)[C@H](C(C)C)NC(=O)[C@H](CC(C)C)N(C)C(=O)CN(C)C1=O` [Compound 30], the concentration for half-maximal inhibition (IC50) with NFAT (HEK293, 16 h) was above 10 µM; in assay [1] it was 29.1 nM.
For `CC[C@@H]1NC(=O)[C@H]([C@H](O)[C@H](C)Cc2nc3ncnc(O)c3[nH]2)N(C)C(=O)[C@H](C(C)C)N(C)C(=O)[C@H](CC(C)C)N(C)C(=O)[C@H](CC(C)C)N(C)C(=O)[C@@H](C)NC(=O)[C@H](C)NC(=O)[C@H](CC(C)C)N(C)C(=O)[C@H](C(C)C)NC(=O)[C@H](CC(C)C)N(C)C(=O)CN(C)C1=O` [Compound 18], the half-inhibitory concentration (IC50) is above 10 µM in the assay with NFAT (HEK293, 16 h) and 1.4 nM in assay [1].
